Measurements: PMC11818921, “Biological Activities of Constituents from Rosa roxburghii and Their Mechanisms Based on Network Pharmacology and Biological Verification” (International Journal of Molecular Sciences, 2025)
Entries after “also recorded” stand apart in the source; their conditions may differ.

Columns and labels:
α-glucosidase = α-glucosidase (Saccharomyces cerevisiae, UniProt P53341); test: α-Glucosidase inhibition assay (pNPG); assay type: biochemical; conditions: at a concentration of 200 μM; for inhibition at 200 µM: read-out: α-glucosidase inhibition rate
Method: For this assay, 20 μL of each sample, 20 μL of α-glucosidase solution (0.6 U/mL), and PBS solution (20 μL) were mixed, added to a 96-well plate, and incubated at 37 °C for 10 min, and then, pNPG solution (20 μL) was added and incubation continued for 30 min. At the end of incubation, the reaction was terminated with the addition of 80 μL of NaCO3 (0.2 M). The release of p-nitrophenol was measured by placing the 96-well plate at 405 nm on an enzyme meter (positive control: acarbose). The test was repeated three times for all samples.Inhibition (%) = (1 − A405 sample/A405 control) × 100%.

[1] = ABTS free radical-scavenging assay; conditions: 6 min reaction, 734 nm
Method: In order to explore the antioxidant capacity of compounds 1–7, DPPH and ABTS free radical-scavenging methods were used in this experiment (ascorbic acid as a positive control). During the experimental operation, the antioxidant test method proposed by Zhu et al. was used as a reference. Different concentrations of each compound solution were added to 96-well plates, and then 100 μL of DPPH/ABTS solution was added to each well, and the reaction was performed at room temperature for 30 min (DPPH)/6 min (ABTS). After the reaction, the OD values of each well were measured at 517 nm (DPPH)/734 nm (ABTS) using a microplate reader. Finally, according to the measured OD value, the DPPH and ABTS free radical-scavenging rates of each sample were calculated. In order to ensure the accuracy and reliability of the experimental data, all samples were tested three times.Clearance = [1 − (A sample group − A control group)/A blank group] × 100%

[2] = RAW264.7 cell viability experiment (MTT); conditions: mouse, RAW264.7 cells
Method: (§2) RAW264.7 cells were cultured in DMEM containing 1% penicillin/streptomycin and 10% bovine fetal serum in an incubator (5% CO2, 37 °C).
(§3) RAW264.7 cells in the logarithmic growth phase were taken and adjusted to 1.5 × 10^5 cells/mL. The cells were inoculated in 96-well plates and divided into a control group, a blank group, and an experimental group with different concentrations. Each group had 4 duplicate wells and was incubated for 24 h (37 °C). Different concentrations of compounds (100 μL) were added to 96-well plates, and 100 μL of culture medium was added to the blank group and the control group, respectively, and incubated for 24 h. MTT (5 mg/mL, 10 μL) was incubated for 4 h (37 °C) per well. The OD value was measured at 450 nm using a microplate reader to calculate the cell viability.

[3] = tested on: NO release in LPS-induced RAW264.7 macrophages; test: Inhibition of NO production induced by LPS in RAW264.7 cells; assay type: cell-based; conditions: LPS-induced RAW264.7 cells; for IC50: RAW264.7, 24 h, LPS 2 μg/mL, 24 h
Method: (§1) RAW264.7 cells were added to a 96-well plate (100 μL/well) at 1.5 × 10^5 cells/mL and incubated for 24 h (37 °C). The control group, model group, and experimental group were set up, with 4 replicates in each group. After incubation, the supernatant was discarded. The cells in the experimental group were treated with different concentrations of compounds, and each group was incubated with lipopolysaccharides (2 μg/mL) for 24 h (37 °C). According to the steps and requirements of the kit instructions, NO, TNF-α, and IL-6 content was detected.

IL-6 = test: ELISA of IL-6 expression in LPS-stimulated RAW264.7 cells; assay type: cell-based; conditions: lowest concentration 12.5 μM
Method: as §1

TNF-α = test: ELISA of TNF-α expression in LPS-stimulated RAW264.7 cells; assay type: cell-based; conditions: 50 μM
Method: as §1

RAW264.7 cells = conditions: 50 µM
Method: as §2, §3

[4] = Mus musculus, 50 µM, read-out: NO inhibition rate (%)

α-glucosidase, sequence (P53341 whole entry): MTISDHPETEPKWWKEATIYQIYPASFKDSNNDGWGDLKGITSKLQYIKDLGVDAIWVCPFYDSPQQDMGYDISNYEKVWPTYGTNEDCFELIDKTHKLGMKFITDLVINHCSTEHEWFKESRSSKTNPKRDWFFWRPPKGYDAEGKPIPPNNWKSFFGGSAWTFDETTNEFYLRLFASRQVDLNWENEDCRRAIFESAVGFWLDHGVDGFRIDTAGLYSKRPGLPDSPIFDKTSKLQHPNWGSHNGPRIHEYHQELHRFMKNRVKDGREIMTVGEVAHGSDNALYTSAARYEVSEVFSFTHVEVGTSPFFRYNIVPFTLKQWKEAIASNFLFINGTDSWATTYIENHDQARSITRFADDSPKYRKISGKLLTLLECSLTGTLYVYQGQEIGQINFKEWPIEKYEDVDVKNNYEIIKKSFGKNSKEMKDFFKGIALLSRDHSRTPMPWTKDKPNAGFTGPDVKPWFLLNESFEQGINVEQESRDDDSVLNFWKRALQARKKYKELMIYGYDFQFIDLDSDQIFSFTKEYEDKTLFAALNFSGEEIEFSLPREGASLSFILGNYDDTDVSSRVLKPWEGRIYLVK

Row | Compound | IC50 [1] | viability at 24 h, 50 µM [2] | inhibition at 50 µM [3, 4] | also measured
1 | O=C1C[C@H](c2ccc(O)c(O)c2)Oc2cc(O)cc(O)c21 [Compound 2, (-)-eriodictyol] | 142.6 ± 0.8 µM | 100% | 31.3% | inhibition at 200 µM (α-glucosidase): 50.1%
2 | CC1=C(CC[C@H](C)O[C@H]2O[C@@H](CO)[C@H](O)[C@@H](O)[C@@H]2O)C(C)(C)C=CC1=O [Compound 4, linarionoside A] | – | 98.8% | 6.6% | inhibition at 200 µM (α-glucosidase): 46.7%
3 | S=C(S)N1CCCC1 [PDTC, Pyrrolidine dithiocarbamate, reference compound] | – | – | – | viability at 24 h, 5 µM [2]: 98.5%; IC50 ([3]; Mus musculus): 3.13 ± 0.3 µM; inhibition at 5 µM ([3]; Mus musculus, 5 µM, positive control, read-out: NO inhibition rate (%)): 69.1%
4 | O=C1c2c(O)cc(O)cc2O[C@H](c2ccc(O)cc2)[C@H]1O [Compound 3, aromadendrin] | – | 100% | 92.5% | effect on IL-6 expression (ELISA) (IL-6): strong inhibitory effect; also recorded: dose-dependently suppressed; effect on TNF-α expression (ELISA) (TNF-α): significant inhibitory activity; IC50 ([3]; Mus musculus): 7.83 ± 2 µM
5 | 4-(1-Methoxyethenyl)phenol [Compound 7] | – | – | – | α-glucosidase inhibition rate (α-glucosidase): 41.1%
6 | COC(=O)C1OC(OCC(O)COC(=O)c2cc(OC)c(O)c(OC)c2)C(O)C(O)C1O (stereo not shown) [Compound 1, Roxbubenzoate A] | 107 ± 1.1 µM | 100% | 0% | –
7 | (1R)-4-[(3R)-3-hydroxybutyl]-3,5,5-trimethylcyclohex-3-en-1-ol [Compound 6] | 128.3 ± 1.2 µM | – | – | Cell viability (%) (RAW264.7 cells): 98.1%; NO inhibition rate (%) ([3]; 50 µM): 0.8%
